Experimental data from patent publication US5571685A (priority 1992, dated 1996).
Read-outs that look alike come from different tables or passages of the source.

What was measured:
[1] = target: T1, morphinone reductase (Pseudomonas putida, UniProt Q51990); conditions: for Enzyme activity in the reverse direction: reverse reaction; for Enzyme activity against compound as substrate: forward (reduction) direction, with NADH
[2] = target: T1, morphinone reductase; assay: Inhibition of the reaction with codeinone by compounds added to the standard assay mixture; type: biochemical, Pseudomonas putida M10; parameters: initiator Met absent; conditions: for Inhibition of the reaction with codeinone: added at 0.3 mM to the standard assay mixture
Description: Enzyme activity was tested with a variety of substrates.

[3] = target: T1, morphinone reductase; assay: biochemical; parameters: initiator Met absent; species or system Pseudomonas putida M10; conditions: for Inhibition of enzyme (in words): pre-incubation with purified enzyme; for remaining activity at 500 µM / remaining activity at 1000 µM: read-out: Activity as percentage of control activity; for remaining activity at 1000 µM: 1 mM
Description: Assays were carried out at 30° C.
Purified enzyme was incubated with the following possible inhibitors: copper sulphate, the thiol-blocking agent p-hydroxymercuribenzoate (pHMB), the thiol-reducing agent dithiothreitol (DTT) and the metal-complexing agents ethylenediaminetetraacetic acid (EDTA) and 8- hydroxyquinoline (8HQ). Incubation was in the standard assay mixture without codeinone or NADH, firstly for 30 min at room temperature and secondly for 16 hours at 4° C. The enzyme concentration was approximately 3.3 μg/ml, 1/100 that of the purified enzyme stock.

[4] = target: T2, deflavo-morphinone reductase (Pseudomonas putida, UniProt Q51990); assay: Reconstitution of deflavo-morphinone reductase by incubation with flavins; type: biochemical, Pseudomonas putida M10
T2 construct: FMN removed by ammonium sulphate (apoenzyme); initiator Met absent
Description: Flavin was dissociated from morphinone reductase by boiling for 3 minutes and removal of denatured protein by ultrafiltration. […] Thin layer chromatography (TLC) of flavins was performed on silica plates using solvent systems 2 and 4 of Fazekas and Kokai (Met. Enzymol. (1971) 18B:385-398), viz. 12:3:5 n-butanol:acetic acid:water and 2% disodium hydrogen phosphate in water. Flayins on TLC plates were visualised by their yellow fluorescence when illuminated by ultraviolet light at 366 nm. Luciferase assay of flavins was performed using the commercially-availablepreparation of Vibrio harveyii luciferase of Sigma. The reaction mixture contained 0.1 mg/ml luciferase preparation, 0.1 mg/ml bovine serum albumin, 0.2 mM n-decanal, 0.5 mM NADH and 1.5mM dithiothreitol. Assays were carried out at 24° C. and light emission was measured using a BioOrbit 1250 Luminometer (Labsystems (UK) Ltd., Basingstoke, U.K.). Deflavomorphinone reductase was prepared by ammonium sulphate treatment, as described by Husain and Massey (1978) Met. Enzymol. 53:429-437.
The liberated flavin comigrated with flavin mononucleotide (FMN) and not with flavin adenine dinucleotide (FAD) or riboflavin in two thin layer chromatography systems. The liberated flavin gave a positive result in the luciferase assay which is highly specific for FMN (Chappelle and Picciolo, Met. Enzymol (1971) 18B:381-385). […]

[5] = target: T1, morphinone reductase; assay: Coupled enzyme system (morphine dehydrogenase then morphinone reductase), HPLC analysis; type: biochemical, Pseudomonas putida M10; parameters: initiator Met absent
Description: Reverse-phase HPLC analysis was performed on a Waters component system (Millipore Waters U.K. Limited, Watford) consisting of a model 510 pump, a model 712 WISP autoinjector and a Waters 994 programmable photodiode array detector set to 235 nm and 280 nm, 0-1 V fsd. Separation of samples (50 μl ) was achieved on a 5 μm C18 Spherisorb ODS column (4.6×250mm) (Anachem limited, Luton) with an isocratic solvent system, delivered at a flow rate of 1 ml/min. The mobile phase consisted of filter-sterilised 15 mM KH2 PO4 (adjusted to pH 3.5 with 1 M H3 PO4) in 30% (v/v) HPLC grade acetonitrile (degassed for 40 min prior to use). Integrations were performed using Maxima 820 software and UV absorbance scans of resultant peaks were measured between 190 and 350 nm using the programmable photodiode array detector.
At regular intervals, 1 ml samples were removed and the reaction stopped by the addition of 2 μl glacial acetic acid (HPLC grade). The precipitated protein was subsequently pelleted at 13,000 rpm in an MSE microfuge.

[6] = system: COc1ccc2c3c1O[C@H]1C(=O)C=C[C@H]4[C@@H](C2)N(C)CC[C@]314; assay: purified protein, by the assay type; conditions: 30.0 °C
[7] = system: COc1ccc2c3c1O[C@H]1C(=O)CC=C4[C@@H](C2)N(C)CC[C@]431; assay: purified protein, by the assay type; conditions: 30.0 °C
[8] = system: NC(=O)C1=CN([C@@H]2O[C@H](COP(=O)(O)OP(=O)(O)OC[C@H]3O[C@@H](n4cnc5c(N)ncnc54)[C@H](O)[C@@H]3O)[C@@H](O)[C@H]2O)C=CC1; assay: purified protein, by the assay type; conditions: 30.0 °C

CN1CC[C@]23c4c5ccc(O)c4O[C@H]2C(=O)CC[C@@]3(O)[C@H]1C5 [oxymorphone]
Enzyme activity in the reverse direction [1]: No reverse reaction

COc1ccc2c3c1O[C@H]1[C@@H](O)C=C[C@H]4[C@@H](C2)N(C)CC[C@@]341 [codeine]
Enzyme activity against compound as substrate [1]: No activity

COc1ccc2c3c1O[C@H]1[C@@H](O)CC[C@H]4[C@@H](C2)N(C)CC[C@@]341 [dihydrocodeine]
Enzyme activity in the reverse direction [1]: No reverse reaction

O=C1C=CCCC1 [2-cyclohexen-1-one]
Enzyme activity against compound as substrate [1]: Very slight activity | Inhibition of activity against codeinone ([2]; added to the standard assay at 1 mM): inhibited the reaction with codeinone

COc1ccc2c3c1O[C@H]1C(=O)CC[C@H]4[C@@H](C2)N(C)CC[C@]314 [hydrocodone]
Enzyme activity in the reverse direction [1]: No activity in the reverse direction

COc1ccc2c3c1O[C@H]1[C@H](O)C=C[C@H]4[C@@H](C2)N(C)CC[C@@]341 [isocodeine]
Enzyme activity against compound as substrate [1]: No activity

CC(=O)[C@H]1CC[C@H]2[C@@H]3CCC4=CC(=O)CC[C@]4(C)[C@H]3CC[C@]12C [progesterone]
Enzyme activity against compound as substrate [1]: No activity | Inhibition of the reaction with codeinone [2]: inhibit greatly

O=C(O)c1cc[c]([Hg+])cc1.[OH-] [pHMB, p-hydroxymercuribenzoate]
Activity as percentage of control activity ([3]; 0.01 mM, 30 min 20°C.): 37% | Activity as percentage of control activity ([3]; 0.01 mM, 16 h 4°C.): 19% | Activity as percentage of control activity ([3]; 0.02 mM, 30 min 20°C.): 0% | Inhibition of enzyme (in words) [3]: highly inhibitory

O=S(=O)([O-])[O-].[Cu+2] [CuSO4, copper sulphate]
Activity as percentage of control activity ([3]; 0.01 Mm, 30 min 20°C.): 0% | Inhibition of enzyme (in words) [3]: highly inhibitory

COc1ccc2c3c1O[C@H]1C(=O)C=C[C@H]4[C@@H](C2)N(C)CC[C@]314 [Codeinone, codeinone]
Enzyme activity against compound as substrate [1]: Activity was detected

Cc1cc2nc3c(=O)[nH]c(=O)nc-3n(C[C@H](O)[C@H](O)[C@H](O)COP(=O)(O)OP(=O)(O)OC[C@H]3O[C@@H](n4cnc5c(N)ncnc54)[C@H](O)[C@@H]3O)c2cc1C [FAD, flavin adenine dinucleotide]
Restoration of enzyme activity after incubation with flavin (in words) [4]: did not cause restoration

O=C(O)CN(CCN(CC(=O)O)CC(=O)O)CC(=O)O [EDTA, ethylenediaminetetraacetic acid]
remaining activity at 500 µM ([3]; 0.5 h): 100% | remaining activity at 500 µM ([3]; 16 h): 97%

C[C@]12CCC(=O)C=C1CC[C@@H]1[C@@H]2C(=O)C[C@@]2(C)[C@H]1CC[C@]2(O)C(=O)CO [cortisone]
Enzyme activity against compound as substrate [1]: No activity | Inhibition of the reaction with codeinone [2]: inhibit greatly

CN1CC[C@]23c4c5ccc(O)c4O[C@H]2C(=O)C=C[C@H]3[C@H]1C5 [morphinone]
Enzyme activity against compound as substrate [5]: Activity against morphinone was demonstrated

NC(=O)C1=CN([C@@H]2O[C@H](COP(=O)(O)OP(=O)(O)OC[C@H]3O[C@@H](n4cnc5c(N)ncnc54)[C@H](OP(=O)(O)O)[C@@H]3O)[C@@H](O)[C@H]2O)C=CC1 [NADPH]
Enzyme activity with alternative cofactor ([1]; NADPH replaced NADH): No activity

O[C@H](CS)[C@H](O)CS (racemic) [DTT, dithiothreitol]
remaining activity at 1000 µM ([3]; 16 h 4°C.): 94% | remaining activity at 1000 µM ([3]; 0.5 h, 30 min 20°C.): 94%

Oc1cccc2cccnc12 [8HQ, 8-hydroxyquinoline]
Activity as percentage of control activity ([3]; morphinone reductase, 30 min, 50 µM): 94 | Activity as percentage of control activity ([3]; morphinone reductase, 960 min, 50 µM): 91

morphinone reductase (Pseudomonas putida)
Km [6]: 250 µM | Vmax [6]: 32.0 U/mg | kcat [6]: 44.4 s⁻¹ | kcat/Km [6]: 178000 M⁻¹ s⁻¹ | Km [7]: 430 µM | Vmax [7]: 16.6 U/mg | kcat [7]: 23.0 s⁻¹ | kcat/Km [7]: 53500 M⁻¹ s⁻¹ | Km [8]: 50 µM

COc1ccc2c3c1O[C@H]1C(=O)CC=C4[C@@H](C2)N(C)CC[C@]431 [Neopinone, neopinone]
Enzyme activity against compound as substrate [1]: Activity was detected

COc1ccc2c3c1O[C@H]1C(=O)CC[C@@]4(O)[C@@H](C2)N(C)CC[C@]314 [oxycodone]
Enzyme activity in the reverse direction [1]: No reverse reaction
